From patent publication US11851676B2, “Human neural precursor cells with inducible STIM1 knockdown” (NATIONAL CENTRE FOR BIOLOGICAL SCIENCES, priority 2018, dated 2023)

Columns and labels:
SOCE in NPCs = conditions: embryonic and adult mouse NSCs/NPCs; cited from earlier work
SOCE in human NPCs = assay: Thapsigargin-induced store release and SOCE Ca2+ imaging in human NPCs; format: cell-based; conditions: thapsigargin 10 μM store depletion, re-addition of 2 mM Ca2+; pharmacological inhibitors vs DMSO
Procedure: (A, B) Ca^2+-responses during ER-store release and SOCE induced by Thapsigargin (TG, 10 μM) measured using the ratiometric Ca^2+-indicator indo-1-AM in wild-type (WT) hNPCs (A) or hNPCs treated with pharmacological inhibitors of SOCE, BTP-2 and 2-APB at the indicated concentrations or DMSO as a solvent control (B). Each trace represents the mean+SEM for 25-100 cells. Ionomycin (Iono, 10 μM) was added at the end of each imaging to determine the peak F405/485 ratio obtained after saturation of the Ca′-indicator with Ca^2+ (C) Box plots quantifying the peak F405/485 values for store-release and SOCE in the indicated treatment conditions.
(Top) A representative Western blot showing levels of STIM1 protein in hNPCs transduced with an NTC (non-targeting control) or an sh-RNA targeting STIM1 (STIM1 KD). Actin serves as the loading control. […] (E) Ca^2+-responses during store-release and SOCE in hNPCs transduced with NTC and STIM1 KD. (F) Box plots quantifying the peak F405/485 values for store-release and SOCE in the indicated genotypes.

SVZ cells [1] = conditions: pharmacological blockade of SOC, in vitro; cited from earlier work
SVZ cells [2] = conditions: injection in brain lateral ventricle; cited from earlier work

## NCCOB(c1ccccc1)c1ccccc1 [2-APB, 2-aminoethoxy-diphenyl borate]
SOCE in NPCs
  effect on SOCE in mouse NPCs: blocked
SOCE in human NPCs
  effect on SOCE in human NPCs: significantly inhibited SOCE

## Cc1nnsc1C(=O)Nc1ccc(-n2nc(C(F)(F)F)cc2C(F)(F)F)cc1 [BTP-2]
SOCE in NPCs
  effect on SOCE in mouse NPCs: blocked
SVZ cells [1]
  effect on proliferation of SVZ cells: decreases proliferation
SOCE in human NPCs
  effect on SOCE in human NPCs: significantly inhibited SOCE

## [La+3] [La^3+]
SOCE in NPCs
  effect on SOCE in mouse NPCs: blocked

## COc1ccc(CCCOC(Cn2ccnc2)c2ccc(OC)cc2)cc1 (centres unmarked) [SKF-96365]
SVZ cells [1]
  effect on proliferation of SVZ cells: decreases proliferation
SVZ cells [2]
  effect on SVZ cell proliferation in vivo: diminishes SVZ cell proliferation
